What all share (format): cell-based
Details in all cases: control, concentration not given, 100 μl per well

For experiment [1], the system named is Candida albicans. Description: Anti-fungal activity, agar well diffusion (zone of inhibition). The protocol: (§1) The anti-microbial activity and the anti-fungal activity of the mouth freshener composition of the present disclosure was determined by testing it on Escherichia coli, Staphylococcus aureus and Candida albicans as the test microorganisms in comparison with a product presently available in the market (herein forward referred to as Product X), methanol and a standard drug i.e. Chlorhexidine. Escherichia coli, Staphylococcus aureus were grown in Luria-Bertani broth (LB broth) and Candida albicans was grown in Potato Dextrose broth (PD broth) until the growth reached approximately 10^6 cfu (colony forming units) per ml culture was attained. 100 μl of this culture was used for the antimicrobial assay. The 1-4% solution of powder extract was prepared by dissolving the extract in methanol as a solvent and all these solutions were store at 4° C. temperature till further use. Mueller-Hinton (HiMedia) agar plates were used to carry out the testing of the anti-microbial activity and Potato dextrose (Himedia) agar plates were used to carry out the testing of the anti-fungal activity of the mouth freshener composition. The dried surface of a Mueller-Hinton agar plate was inoculated by spreading 100 μl culture suspension on the agar surface. […]
A general note: A growth-free zone around the sample is the usual read-out of agar diffusion tests.

The subject of experiment [2] is Staphylococcus aureus. Briefly: Anti-microbial activity, agar well diffusion (zone of inhibition). Here is the method:
as §1

In experiment [3] the test system is Escherichia coli. The experiment is described as above. The protocol:
as §1

SMILES strings stand for the structures.

Take `[H]/N=C(\N/C(=N/[H])NCCCCCCNC(=N)NC(=N)Nc1ccc(Cl)cc1)Nc1ccc(Cl)cc1` [Chlorhexidine]: the Zone of inhibition in experiment [1] is listed as 19 mm; in experiment [2], 18 mm; in experiment [3], 15 mm.

(Values after US11179433B2, “Mouth freshener” (ARI HEALTHCARE PVT. LTD., priority 2014, dated 2021).)
